Broadly, the Km is the concentration of substrate that gives half-maximal velocity.

One series has as its target human recombinant AChE (Homo sapiens, UniProt P22303). Description: Acetylcholinesterase in vitro assay (hydrolysis of ligand followed by UV/Vis repetitive scans). It counts as biochemical. The settings on record: phosphate buffer pH 8.0; change of absorbance in repeated scans. As for the experimental part: In Examples 23-28, the interaction of the ligands with AChE was determined by measuring the rate of hydrolysis of the ligand in a buffered solution containing the enzyme. AChE stock solution consisted of 240 μg of human recombinant AChE dissolved in 1.5 mL of 0.1% aq. Gelatin. All ligands used in the assay were dissolved in a minimal amount of acetonitrile to form a ligand solution. 0.1 M Phosphate buffer PH 8.0 consisted of 1.2 g of NaH2PO4 dissolved in 100 mL of water and adjusted to the appropriate pH. The Assay was carried out by mixing 0.1 μmole of ligand solution with 5 μL of AChE stock solution and bringing the volume in a quartz cuvette of 1 cm path length to 1.5 mL with phosphate buffer. Scans using an UltraSpec 2100 Pro UV/Visible spectrophotometer over a wavelength of 200-900 nm monitored the rate of hydrolysis of the ligand by the enzyme. Change of absorbance in the spectrum indicated hydrolysis of the ligand by the enzyme.

The target of series [1] is T1, BuChE (Homo sapiens, UniProt P06276). Description: Butyrylcholinesterase in vitro assay (hydrolysis of ligand followed by UV/Vis repetitive scans). It counts as biochemical. To be noted: phosphate buffer pH 8.0; change of absorbance in repeated scans. Here is the method:
In Examples 39-54, interaction of the ligands with BuChE was determined by measuring the rate of the hydrolysis of the ligand in a buffered solution containing the enzyme. All ligands used in the assay were dissolved in a minimal amount of acetonitrile to form a ligand solution. 0.1 M Phosphate buffer PH 8.0 was prepared as to the above specifications. The Assay was carried out by mixing 0.1 μmol of ligand solution with 5 μL of BuChE stock solution and bringing the volume in a quartz cuvette of 1 cm path length to 1.5 mL with phosphate buffer. Scans using an UltraSpec 2100 Pro UV/Visible spectrophotometer over a wavelength of 200-900 nm monitored the rate of hydrolysis of the ligand by the enzyme. Change of absorbance in the spectrum indicated hydrolysis of the ligand by the enzyme. The results of these experiments generally indicate that enzymatic hydrolysis of the compounds does occur in the presence of BuChE.

For series [2], the target named is T1, BuChE. Description: Michaelis-Menten constant and maximum reaction velocity measurement (Lineweaver-Burk plot). It counts as biochemical. The settings on record: room temperature, λ=285 nm, average, N=3. As for the experimental part:
In Example 55, Km and relative Vmax values were determined for compounds identified to be hydrolyzed by BuChE. The assay was carried out by mixing 1 uL of BuChE stock solution in 1.4 mL of phosphate buffer. Absorbance of this solution was calibrated to zero and the reaction commenced with the addition of 100 μL of a solution of ligand in 100% acetonitrile. The reactions were carried out at room temperature. The rate of change of absorbance (ΔA/min), reflecting the rate of hydrolysis of the ligand by enzyme was recorded every 3 seconds for a total of 36 seconds using a Milton-Roy uv-visible spectrophotometer set at λ=285 nm.
A Lineweaver-Burk plot was used in order to determine the Km (substrate concentration at which the reaction rate reaches half of its maximum value), and relative Vmax (maximum reaction velocity), values. Average Michealis-Menten constant and maximum reaction velocity values for a selection compounds (N=3) were measured, and the results are set forth in Table 1 below.

Series [3] in a line: SPECT imaging and brain fraction radiation counts after injection of radiolabeled compound. It counts as in vivo. To be noted: rat; after injection and several hours of SPECT imaging; sacrificed and perfused. As for the experimental part:
Shortly after the synthesis and purification detailed in Example 21, a rat was injected with the radiolabeled compound (6-oxo-1,6-dihydropyridin-2-yl)methyl-4-^123iodobenzoate and SPECT images were taken at regular time points for several hours.
After imaging, the rat was sacrificed and perfused. Radiation counts from HPLC attributable to (1,6-dihydro-6-oxopyridin-2-yl)methyl 4-^123iodobenzoate remaining in the brain fraction are shown in FIG. 4.

Chain of human recombinant AChE (P22303 32-614): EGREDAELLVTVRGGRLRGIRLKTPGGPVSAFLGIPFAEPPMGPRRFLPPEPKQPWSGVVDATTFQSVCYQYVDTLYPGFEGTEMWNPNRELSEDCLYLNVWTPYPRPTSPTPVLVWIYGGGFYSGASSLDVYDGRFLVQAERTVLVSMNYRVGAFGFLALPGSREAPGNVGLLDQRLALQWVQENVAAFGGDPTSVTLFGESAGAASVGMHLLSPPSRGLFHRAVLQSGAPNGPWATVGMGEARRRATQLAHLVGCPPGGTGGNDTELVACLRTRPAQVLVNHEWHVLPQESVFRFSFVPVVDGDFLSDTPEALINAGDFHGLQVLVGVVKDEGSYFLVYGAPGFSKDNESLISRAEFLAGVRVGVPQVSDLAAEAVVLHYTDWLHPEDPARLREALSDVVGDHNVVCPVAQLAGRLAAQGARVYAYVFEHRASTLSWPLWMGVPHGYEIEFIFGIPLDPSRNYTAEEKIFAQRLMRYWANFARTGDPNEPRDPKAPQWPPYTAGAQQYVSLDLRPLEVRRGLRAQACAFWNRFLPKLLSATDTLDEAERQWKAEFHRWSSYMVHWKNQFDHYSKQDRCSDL
T1 sequence (P06276 29-602): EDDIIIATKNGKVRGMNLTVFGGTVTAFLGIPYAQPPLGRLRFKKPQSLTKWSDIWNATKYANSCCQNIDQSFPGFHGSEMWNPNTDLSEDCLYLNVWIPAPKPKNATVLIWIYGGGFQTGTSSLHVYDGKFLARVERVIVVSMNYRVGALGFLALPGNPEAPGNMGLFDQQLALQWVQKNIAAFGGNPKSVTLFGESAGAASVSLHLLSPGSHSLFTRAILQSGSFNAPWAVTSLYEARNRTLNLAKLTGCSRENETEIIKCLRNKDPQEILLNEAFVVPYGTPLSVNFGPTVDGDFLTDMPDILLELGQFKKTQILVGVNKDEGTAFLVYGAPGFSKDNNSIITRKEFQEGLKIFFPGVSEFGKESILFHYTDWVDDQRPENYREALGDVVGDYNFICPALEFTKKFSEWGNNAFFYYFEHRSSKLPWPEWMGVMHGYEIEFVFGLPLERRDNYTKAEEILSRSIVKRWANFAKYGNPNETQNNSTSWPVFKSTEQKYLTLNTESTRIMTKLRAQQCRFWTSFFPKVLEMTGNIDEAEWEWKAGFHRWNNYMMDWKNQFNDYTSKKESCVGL

Take `CN1CCC(OC(=O)c2cccc(C#N)c2)CC1` [1′-methylpiperidin-4′-yl 3-cyanobenzoate]: on human recombinant AChE, the “enzymatic hydrolysis of the compound in the presence of AChE” value (shortened to “enzymatic hydrolysis … of AChE”) is listed as “does not occur”. Moreover, the “enzymatic hydrolysis of the compound in the presence of BuChE” value (“enzymatic hydrolysis … of BuChE” for short) on BuChE [1] is “does occur”.

As for `CN1CCC(OC(=O)c2ccc(C#N)cc2)CC1` [1′-methylpiperidin-4′-yl 4-cyanobenzoate], at human recombinant AChE, the “enzymatic hydrolysis … of AChE” value is recorded as “does not occur”.

As for `CN1CCC(OC(=O)c2cccc(I)c2)CC1` [1′-methylpiperidin-4′-yl 3-iodobenzoate], the “enzymatic hydrolysis … of AChE” value on human recombinant AChE is “does not occur”. In addition, the “enzymatic hydrolysis … of BuChE” value at BuChE [1] is “does occur”.

On to `CN1CCC(OC(=O)c2ccccc2)CC1` [1′-methylpiperidin-4′-yl benzoate], for which the “enzymatic hydrolysis … of AChE” value at human recombinant AChE is listed as “does not occur”. Besides, the “enzymatic hydrolysis … of BuChE” value on BuChE [1] is given as “does occur”.

With `CN1CCC(OC(=O)c2ccc(C#N)cc2)CC1` [Example 9, 1′-methylpiperidin-4′-yl 4-cyanobenzoate], at BuChE [2], the Km is 48 ± 18 µM and the “Vmax (relative maximum reaction velocity)” value was 12 ± 3 ΔA min^−1. The “enzymatic hydrolysis … of BuChE” value at BuChE [1] is listed as “does occur”.

Turning to `CN1CCC(OC(=O)c2ccccc2)CC1` [Example 10, 1′-methylpiperidin-4′-yl benzoate], on BuChE [2], the Km worked out at 68 ± 9 µM and the “Vmax (relative maximum reaction velocity)” value is 6.8 ± 0.5 ΔA min^−1.

With `CN1CCC(OC(=O)c2ccc(F)cc2)CC1` [Example 8, 1′-methylpiperidin-4′-yl 4-fluorobenzoate], at human recombinant AChE, the “enzymatic hydrolysis … of AChE” value is “does not occur”. Moreover, on BuChE [2], the Km is 753 ± 115 µM and the “Vmax (relative maximum reaction velocity)” value is 36 ± 6 ΔA min^−1. The “enzymatic hydrolysis … of BuChE” value on BuChE [1] is “does occur”.

Consider `CN1CC[C@H](OC(=O)c2ccc(I)cc2)C1` [Example 14, (5)-1′-methylpyrrolidin-3′-yl 4-iodobenzoate], for which the “enzymatic hydrolysis … of AChE” value at human recombinant AChE is recorded as “does not occur”. Further, at BuChE [2], the Km is 16 ± 4 µM and the “Vmax (relative maximum reaction velocity)” value was 6.1 ± 0.5 ΔA min^−1. Besides, the “enzymatic hydrolysis … of BuChE” value on BuChE [1] is recorded as “does occur”.

For the molecule `CN1CC[C@@H](OC(=O)c2ccc(C#N)cc2)C1` [Example 17, R-1′-methylpyrrolidin-3′-yl-4-cyanobenzoate], on human recombinant AChE, the “enzymatic hydrolysis … of AChE” value is listed as “does not occur”. On BuChE [2], the Michaelis constant (Km) was 198 ± 18 µM and the “Vmax (relative maximum reaction velocity)” value was 30 ± 3 ΔA min^−1. On BuChE [1], the “enzymatic hydrolysis … of BuChE” value is listed as “does occur”.

`N#Cc1ccc(C(=O)OCc2ccc[nH]c2=O)cc1` [Example 3, (1,2-dihydro-2-oxopyridin-3-yl)methyl 4-cyanobenzoate]: the “enzymatic hydrolysis … of AChE” value on human recombinant AChE is on record as “does not occur”. The “enzymatic hydrolysis … of BuChE” value at BuChE [1] was “does occur”.

`O=C(OCc1cccc(=O)[nH]1)c1ccc(I)cc1` [Example 4, (1,6-dihydro-6-oxopyridin-2-yl)methyl 4-iodobenzoate]: the “enzymatic hydrolysis … of AChE” value on human recombinant AChE is recorded as “does not occur”. Besides, the “Vmax (relative maximum reaction velocity)” value at BuChE [2] is on record as 9.7 ± 1.7 ΔA min^−1. In addition, the “enzymatic hydrolysis … of BuChE” value on BuChE [1] is “does occur”.

`CN1CC[C@@H](OC(=O)c2ccc(I)cc2)C1` [Example 16, R-1′-methylpyrrolidin-3′-yl 4-iodobenzoate]: the “enzymatic hydrolysis … of AChE” value at human recombinant AChE is “does not occur”. At BuChE [2], the Km was found to be 144 ± 121 µM and the “Vmax (relative maximum reaction velocity)” value is 10 ± 9 ΔA min^−1. Besides, the “enzymatic hydrolysis … of BuChE” value at BuChE [1] is “does occur”.

For `O=C(OCc1cccc(=O)[nH]1)c1ccc(F)cc1` [Example 5, (1,6-dihydro-6-oxopyridin-2-yl)methyl 4-fluorobenzoate], the “enzymatic hydrolysis … of AChE” value at human recombinant AChE was “does not occur”. In addition, the “enzymatic hydrolysis … of BuChE” value on BuChE [1] was “does occur”.

For `CCCC(=O)SCC[N+](C)(C)C` [butyrylthiocholine, reference compound], at BuChE [2], the Km was 30.6 ± 7 µM.

For the molecule `CN1CC[C@H](OC(=O)c2ccc(C#N)cc2)C1` [Example 15, (S)-1′-methylpyrrolidin-3′-yl-4-cyanobenzoate], the “enzymatic hydrolysis … of AChE” value at human recombinant AChE was “does not occur”. In addition, on BuChE [2], the Km was determined as 200 ± 52 µM and the “Vmax (relative maximum reaction velocity)” value is 16 ± 4 ΔA min^−1. For the same molecule, on BuChE [1], the “enzymatic hydrolysis … of BuChE” value is “does occur”.

For the molecule `O=C(OCc1ccc[nH]c1=O)c1ccc(F)cc1` [Example 2, (1,2-dihydro-2-oxopyridin-3-yl)methyl 4-fluorobenzoate], on human recombinant AChE, the “enzymatic hydrolysis … of AChE” value is given as “does not occur”. For the same molecule, the “enzymatic hydrolysis … of BuChE” value on BuChE [1] is “does occur”.

On to `O=C(OCc1cccc(=O)[nH]1)c1ccc([123I])cc1` [Example 21, (6-oxo-1,6-dihydropyridin-2-yl)methyl 4-^123iodobenzoate], for which the “brain penetration (radiation counts in brain fraction, FIG. 4)” value in series [3] is on record as “penetrates into the brain”.

`N#Cc1ccc(C(=O)OCc2cccc(=O)[nH]2)cc1` [Example 6, (1,6-dihydro-6-oxopyridin-2-yl)methyl 4-cyanobenzoate]: the “enzymatic hydrolysis … of AChE” value on human recombinant AChE was “does not occur”. Further, on BuChE [1], the “enzymatic hydrolysis … of BuChE” value is “does occur”.

For `O=C(OCc1ccc[nH]c1=O)c1ccc(I)cc1` [Example 1, (1,2-dihydro-2-oxopyridin-3-yl)methyl 4-iodobenzoate], the “enzymatic hydrolysis … of AChE” value at human recombinant AChE is listed as “does not occur”. The “enzymatic hydrolysis … of BuChE” value at BuChE [1] was “does occur”.

For the molecule `CN1CCC(OC(=O)c2ccc(I)cc2)CC1` [Example 7, 1′-methylpiperidin-4′-yl 4-iodobenzoate], the “enzymatic hydrolysis … of AChE” value at human recombinant AChE is recorded as “does not occur”. On BuChE [2], the Km is 26 ± 2 µM and the “Vmax (relative maximum reaction velocity)” value is recorded as 8.4 ± 0.4 ΔA min^−1. Also, the “enzymatic hydrolysis … of BuChE” value at BuChE [1] was “does occur”.
